Like-named read-outs stand apart in the source and are kept apart here.
How the values were obtained:
P. mirabilis = assay: In vitro MIC, 2010 surveillance isolates; format: cell-based; conditions: N=384
[1] = test system: E. coli (ATCC 25922) biofilm; assay: MBEC assay, activity against established 24 hour biofilm; format: cell-based, Escherichia coli; conditions: 24 hours challenge
Experimental: (§1) The MBEC™ assay (formerly the Calgary biofilm device; Innovotech Inc., Canada) is a well-established high throughput assay for assessment of anti-biofilm activity of test agents in a 96-well format. Within this assay, the biofilm is formed on the plastic pegs of the plate lid. After inoculated media is introduced to the wells of the 96-well plate, the plate is placed in a shaking incubator to generate the necessary shear force for biofilm growth on the pegs. Following a suitable incubation time, the individual biofilms can be treated with varying concentrations of test agents (challenge plate). After the desired treatment time, the remaining biofilm-associated bacteria are retrieved from the pegs through sonication (recovery plate). Serial dilution and/or plating of the recovered bacterial suspension allow for the quantification of test agents' efficacy against pre-formed biofilms. Additionally, readout of the challenge plate from the biofilm treatment can be used to determine MIC values of test agents. The absence of growth in the recovery plate indicates complete biofilm eradication and the lowest concentration of a test agent that achieves this is designated as the minimum biofilm eradication concentration (MBEC). The MBEC™ assay is also amenable to assess potential synergistic effects of combination treatments, as well as efficacy of test agents in inhibiting or inducing biofilm formation. The MBEC™ plates were inoculated with 10^7 CFU/mL of stationary phase E. coli (ATCC 25922) and incubated for 24 hours to allow formation of a robust biofilm. The individual biofilms formed on the pegs were challenged with varying concentrations of antibiotics for 24 hours, followed by recovery of the surviving bacteria. Bacterial enumeration was performed using a Most Probable Number (MPN) assay (Sutton, Journal of Validation Technology 16 (3): 35-38, 2010, incorporated herein by reference) in a 96-well format.

[2] = test system: E. coli (ATCC 25922) biofilm; assay: MBEC assay, planktonic adhesion to 6, 12, 24 hour biofilms under sub-MIC treatment; format: cell-based, Escherichia coli
Experimental: as §1, with “The MBEC™ assay is also amenable to assess potential synergistic effects of combination treatments, as well as efficacy of test agents in inhibiting or inducing biofilm formation. The MBEC™ plates were inoculated with 10^7 CFU/mL of stationary phase E. coli (ATCC 25922) and incubated for 24 hours to allow formation of a robust biofilm. The individual biofilms formed on the pegs were challenged with varying concentrations of antibiotics for 24 hours, followed by recovery of the surviving bacteria. Bacterial enumeration was performed using a Most Probable Number (MPN) assay (Sutton, Journal of Validation Technology 16 (3): 35-38, 2010, incorporated herein by reference) in a 96-well format.” left out

[3] = test system: E. coli (ATCC 25922) biofilm; assay: MBEC assay, inhibition of biofilm formation; format: cell-based, Escherichia coli
Experimental: as §1, with “formation.” for “formation. The MBEC™ plates were inoculated with 10^7 CFU/mL of stationary phase E. coli (ATCC 25922) and incubated for 24 hours to allow formation of a robust biofilm. The individual biofilms formed on the pegs were challenged with varying concentrations of antibiotics for 24 hours, followed by recovery of the surviving bacteria. Bacterial enumeration was performed using a Most Probable Number (MPN) assay (Sutton, Journal of Validation Technology 16 (3): 35-38, 2010, incorporated herein by reference) in a 96-well format.”
The MBEC™ plates were inoculated with either 10^5 CFU/mL (low inoculum) or 10^7 CFU/mL (high inoculum) of stationary phase E. coli (ATCC 25922) with simultaneous addition of antibiotics to evaluate the progression of biofilm formation under antibiotic challenge. After 24 hour incubation, the bacteria were recovered and enumerated (as above). FIG. 6. […] FIG. 7.

E. coli = assay: In vitro activity in urine relative to standard media; format: cell-based
protein = conditions: cited from earlier work
human plasma protein = conditions: cited from earlier work

## CN(C)c1cc(CNCC(C)(C)C)c(O)c2c1C[C@H]1C[C@H]3[C@H](N(C)C)C(O)=C(C(N)=O)C(=O)[C@@]3(O)C(O)=C1C2=O [Compound 1, 9-[(2,2-dimethyl-propylamino)-methyl]-minocycline]
P. mirabilis; MIC 1 μg/ml
  Cumulative % Inhibition at MIC: 0.3%
P. mirabilis; MIC 2 μg/ml
  Cumulative % Inhibition at MIC: 1.3%
P. mirabilis; MIC 4 μg/ml
  Cumulative % Inhibition at MIC: 5.7%
P. mirabilis; MIC 8 μg/ml
  Cumulative % Inhibition at MIC: 22.9%
P. mirabilis; MIC 16 μg/ml
  Cumulative % Inhibition at MIC: 56.8%
P. mirabilis; MIC ≤0.5 μg/ml
  Cumulative % Inhibition at MIC: 0%
P. mirabilis; MIC ≥32 μg/ml
  Cumulative % Inhibition at MIC: 100%
[1]; at around MIC
  reduction of total biofilm-associated bacteria: 1-2 log units
[1]; at higher concentrations
  reduction in bioburden: 4-5 log units
[2]; 24 hour biofilms, 4% of the MIC (0.046 μg/mL), planktonic bacteria present
  reduction in total biofilm-associated bacteria relative to controls: reduced by about a log
[2]; sub-MIC concentrations, 6, 12, 24 hour biofilms
  adhesion of planktonic bacteria to biofilms: do not promote additional adhesion of planktonic bacteria
[3]; 0.183 μg/mL (approx. 15% of MIC)
  less bioburden of biofilm compared to control: approx. 2 log units
[3]; 0.743 μg/mL, 24 hour incubation
  lower total bioburden of biofilm vs controls: 3-4 log units
[3]; 0.74 p g/mL, high and low inoculum conditions, respectively
  reduction of mean biofilm formation compared to controls: 3 to 4 log units
[3]; all doses above the MIC
  inhibition of biofilm formation: strongly inhibits biofilm formation
[3]; sub-MIC doses
  induction of biofilm formation: fail to induce biofilm formation
E. coli
  activity in urine relative to standard media: stable

## CN(C)c1cc(NC(=O)CNC(C)(C)C)c(O)c2c1C[C@H]1C[C@H]3[C@H](N(C)C)C(O)=C(C(N)=O)C(=O)[C@@]3(O)C(O)=C1C2=O [Tigecycline]
protein; 0.1 μg/mL, ultracentrifugation
  protein binding: 73%
protein; 0.1 μg/mL, ultrafiltration
  protein binding: 71%
protein; 1.0 μg/mL, ultracentrifugation
  protein binding: 79%
protein; 1.0 μg/mL, ultrafiltration
  protein binding: 87%
protein; Concentration 100 ng/mL
  protein binding, Ultracentrifugation: 73%
  protein binding, Ultrafiltration: 71%
protein; Concentration 1,000 ng/mL
  protein binding, Ultracentrifugation: 79%
  protein binding, Ultrafiltration: 87%
Human plasma protein; binding increases with increasing drug concentrations
  type of plasma protein binding: atypical, non-linear protein binding
Human plasma protein; literature
  human plasma protein binding, Mean: 71-87%

From patent publication US10238670B2, “9-aminomethyl minocycline compounds and methods of use thereof in urinary tract infection (UTI) treatment” (Paratek Pharmaceuticals, Inc., priority 2016, dated 2019)
